Like-named read-outs stand apart in the source and are kept apart here.
What was measured:
[1] = target: CDK7/Cyclin H/MAT1 complex (Homo sapiens, UniProt P50613); test: CDK7 inhibition assay (Caliper/LabChip EZ Reader kinase assay); type: biochemical; settings: Table 1; CDK7/Cyclin H/MAT1 6 nM, ATP 2 mM, 35 min at 27° C.
Summary of the method: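 A Perkin Elmer Caliper/LabChip EZ Reader (Waltham, MA) platform served as the basis for this CDK7 kinase inhibition assay. The work was carried out by Biortus Biosciences, located in Jiangyin, Jiangsu Province, P.R. of China. Each CDK studied had its own kinase assay, and compounds were evaluated for their ability to block CDK7 activity.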

[2] = target: T1, CDK12 (aa686-1082)/Cyclin K complex (Homo sapiens, UniProt Q9NYV4); test: CDK12 inhibition assay (Caliper/LabChip EZ Reader kinase assay); type: biochemical; settings: Table 1; CDK12 (aa686-1082)/Cyclin K 50 nM, ATP 2 mM, 3 hr at 27° C.
T1 construct: CDK12 (aa686-1082)/Cyclin K complex

[3] = target: CDK9/Cyclin T1 complex (Homo sapiens, UniProt P50750); test: CDK9 inhibition assay (Caliper/LabChip EZ Reader kinase assay); type: biochemical; settings: Table 1; CDK9/Cyclin T1 8 nM, ATP 2 mM, 15 min at 27° C.
Summary of the method: (§1)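 Caliper/LabChip EZ Reader mobility-shift assays. CDK9/Cyclin T1 at 8 nM with 2 μM 5-FAM-CDK9tide peptide and 10 mM MgCl2; CDK2/Cyclin E1 at 0.5 nM with 2 μM 5-FAM-CDK7tide and 2 mM MgCl2.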

[4] = target: CDK2/Cyclin E1 complex (Homo sapiens, UniProt P24941); test: CDK2 inhibition assay (Caliper/LabChip EZ Reader kinase assay); type: biochemical; settings: Table 1; CDK2/Cyclin E1 0.5 nM, ATP 2 mM, 35 min at 27° C.
Summary of the method: as §1

[5] = system: A673 cells; test: Inhibition of proliferation of A673 cells (CyQUANT, 72 hour); type: cell-based, human; settings: A673 cells, 72 hour, CyQUANT, read-out: Inhibition of Proliferation of A673 Cells (calculated IC50)
Summary of the method: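 Human Ewing's sarcoma A673 cells in DMEM with 10% FBS and 1 mM sodium pyruvate, 37° C, 5% CO2, treated 72 h with compound from 4 μM to […] (0.5 log dilutions). Antiproliferative effect read by CyQUANT assay.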

[6] = system: HCC70 cells; test: Inhibition of proliferation of HCC70 cells (CyQUANT Direct Cell Proliferation Assay, 72 hour); type: cell-based, human; settings: read-out: Inhibition of Proliferation of HCC70 Cells (calculated IC50)
Experimental: HCC70 cells are a cell line derived from human triple negative breast cancer. […] Known CDK inhibitors dinaciclib or N-((1S,3R)-3-((5-chloro-4-(1H-indol-3-yl) pyrimidin-2-yl)amino)cyclohexyl)-5-((E)-4-(dimethylamino)but-2-enamido)picolinamide and triptolide were used as positive controls. […] The cells were cultured at 37° C. in a humidified chamber in the presence of 5% CO2. Proliferation assays were conducted over a 72 hour time period. CyQUANT® Direct Cell Proliferation Assay (Life Technologies, Chicago, IL USA) was used to assess the anti-proliferative effects of the compounds following manufacturer's directions and utilizing the reagents supplied with the CyQUANT® Direct Cell kit.

CDK7/Cyclin H/MAT1 complex, sequence (P50613 whole entry, species assumed): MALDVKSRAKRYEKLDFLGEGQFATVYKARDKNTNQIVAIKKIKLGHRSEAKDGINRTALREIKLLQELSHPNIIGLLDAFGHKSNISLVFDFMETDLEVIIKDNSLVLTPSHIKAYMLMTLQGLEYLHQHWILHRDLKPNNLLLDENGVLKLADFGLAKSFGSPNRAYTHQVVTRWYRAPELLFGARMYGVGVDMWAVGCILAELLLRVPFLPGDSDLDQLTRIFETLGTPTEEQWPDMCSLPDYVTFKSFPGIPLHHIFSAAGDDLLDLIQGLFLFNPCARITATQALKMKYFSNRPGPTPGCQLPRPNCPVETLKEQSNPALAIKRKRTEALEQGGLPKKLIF
CDK7/Cyclin H/MAT1 complex, sequence (P51946 whole entry partner, species assumed): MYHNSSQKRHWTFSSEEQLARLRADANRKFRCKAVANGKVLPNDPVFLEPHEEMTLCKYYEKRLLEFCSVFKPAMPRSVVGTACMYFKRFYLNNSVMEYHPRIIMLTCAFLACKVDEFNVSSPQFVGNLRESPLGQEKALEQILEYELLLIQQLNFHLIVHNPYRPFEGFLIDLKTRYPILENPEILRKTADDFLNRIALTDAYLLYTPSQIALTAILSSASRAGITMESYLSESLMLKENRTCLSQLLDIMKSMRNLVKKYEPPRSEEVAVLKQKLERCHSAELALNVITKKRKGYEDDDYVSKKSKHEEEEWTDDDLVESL
CDK7/Cyclin H/MAT1 complex, sequence (P51948 whole entry partner, species assumed): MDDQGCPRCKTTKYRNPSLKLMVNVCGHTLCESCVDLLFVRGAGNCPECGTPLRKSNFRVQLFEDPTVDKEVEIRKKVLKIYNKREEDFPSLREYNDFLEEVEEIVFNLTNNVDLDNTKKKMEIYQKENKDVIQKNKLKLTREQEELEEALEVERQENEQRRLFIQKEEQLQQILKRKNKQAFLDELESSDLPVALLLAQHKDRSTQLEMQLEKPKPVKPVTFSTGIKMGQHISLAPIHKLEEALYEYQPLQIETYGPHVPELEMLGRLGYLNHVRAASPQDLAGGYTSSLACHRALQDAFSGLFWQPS
T1 sequence (Q9NYV4 686-1082, species assumed): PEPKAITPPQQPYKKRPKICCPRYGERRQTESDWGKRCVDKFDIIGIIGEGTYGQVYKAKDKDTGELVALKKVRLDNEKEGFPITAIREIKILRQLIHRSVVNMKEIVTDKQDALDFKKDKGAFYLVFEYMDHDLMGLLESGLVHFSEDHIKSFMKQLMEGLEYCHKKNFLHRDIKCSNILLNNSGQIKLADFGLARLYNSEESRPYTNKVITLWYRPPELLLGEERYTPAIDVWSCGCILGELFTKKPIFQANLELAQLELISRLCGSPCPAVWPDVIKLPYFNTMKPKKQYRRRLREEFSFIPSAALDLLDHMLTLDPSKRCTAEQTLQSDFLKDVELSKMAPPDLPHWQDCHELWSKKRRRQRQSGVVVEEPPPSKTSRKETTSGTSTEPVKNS
T1 sequence (O75909 whole entry partner, species assumed, the tested form may be a part): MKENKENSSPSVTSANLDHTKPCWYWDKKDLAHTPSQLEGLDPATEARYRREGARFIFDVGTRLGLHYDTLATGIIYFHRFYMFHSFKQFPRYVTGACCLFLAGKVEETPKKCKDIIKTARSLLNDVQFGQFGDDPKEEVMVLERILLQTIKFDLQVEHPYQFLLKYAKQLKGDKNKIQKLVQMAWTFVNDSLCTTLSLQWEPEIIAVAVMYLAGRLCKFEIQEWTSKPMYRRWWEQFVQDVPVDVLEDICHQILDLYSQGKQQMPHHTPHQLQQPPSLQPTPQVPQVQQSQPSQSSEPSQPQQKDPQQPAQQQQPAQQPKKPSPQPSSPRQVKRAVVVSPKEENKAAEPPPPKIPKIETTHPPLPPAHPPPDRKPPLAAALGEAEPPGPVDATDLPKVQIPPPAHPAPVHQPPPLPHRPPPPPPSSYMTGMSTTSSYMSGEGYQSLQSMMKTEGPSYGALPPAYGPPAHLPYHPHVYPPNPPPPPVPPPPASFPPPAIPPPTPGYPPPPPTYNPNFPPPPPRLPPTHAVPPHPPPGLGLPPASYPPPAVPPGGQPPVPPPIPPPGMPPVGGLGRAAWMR
CDK9/Cyclin T1 complex, sequence (P50750 whole entry, species assumed): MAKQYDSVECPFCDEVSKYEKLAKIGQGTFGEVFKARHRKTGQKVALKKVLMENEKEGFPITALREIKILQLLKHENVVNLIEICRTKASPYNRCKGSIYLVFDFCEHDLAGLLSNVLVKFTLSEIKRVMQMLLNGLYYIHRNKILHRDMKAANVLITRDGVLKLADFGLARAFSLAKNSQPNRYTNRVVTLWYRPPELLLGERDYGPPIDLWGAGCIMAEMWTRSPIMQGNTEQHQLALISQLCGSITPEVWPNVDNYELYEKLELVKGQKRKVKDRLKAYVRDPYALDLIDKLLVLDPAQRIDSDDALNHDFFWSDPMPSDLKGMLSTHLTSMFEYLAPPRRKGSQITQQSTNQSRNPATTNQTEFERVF
CDK9/Cyclin T1 complex, sequence (O60563 whole entry partner, species assumed): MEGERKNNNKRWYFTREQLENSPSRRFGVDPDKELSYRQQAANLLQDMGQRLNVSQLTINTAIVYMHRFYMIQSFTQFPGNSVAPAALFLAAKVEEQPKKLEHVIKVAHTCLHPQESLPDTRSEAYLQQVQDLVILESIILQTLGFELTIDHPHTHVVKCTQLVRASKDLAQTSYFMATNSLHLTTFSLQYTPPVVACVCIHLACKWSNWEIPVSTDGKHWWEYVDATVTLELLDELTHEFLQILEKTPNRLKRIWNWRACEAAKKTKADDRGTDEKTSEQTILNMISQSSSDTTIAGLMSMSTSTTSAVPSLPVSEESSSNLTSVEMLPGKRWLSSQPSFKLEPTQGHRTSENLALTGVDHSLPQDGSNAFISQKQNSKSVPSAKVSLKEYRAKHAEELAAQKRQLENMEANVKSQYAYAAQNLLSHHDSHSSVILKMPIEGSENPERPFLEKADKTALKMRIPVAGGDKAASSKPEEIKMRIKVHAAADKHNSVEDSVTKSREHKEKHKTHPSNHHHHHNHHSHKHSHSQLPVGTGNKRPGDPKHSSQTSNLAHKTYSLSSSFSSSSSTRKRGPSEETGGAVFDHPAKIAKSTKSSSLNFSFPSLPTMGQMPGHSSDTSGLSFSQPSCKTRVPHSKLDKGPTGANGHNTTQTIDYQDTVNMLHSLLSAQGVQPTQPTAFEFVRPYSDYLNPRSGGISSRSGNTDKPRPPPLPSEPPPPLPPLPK

OC1CC=C(c2cccc3c(-c4nc(N[C@H]5CCCNC5)ncc4C(F)(F)F)c[nH]c23)CC1 (some centres unmarked) [Compound 198]
IC50 [1]: < 20 nM
IC50 [2]: 200 to 5000 nM
IC50 [3]: 200 to 5000 nM
IC50 [4]: 200 to 5000 nM
IC50 [5]: < 20 nM

NS(=O)(=O)c1cccc(-c2ccc3c(-c4nc(N[C@H]5CCCNC5)ncc4C(F)(F)F)c[nH]c3c2)c1 [Compound 326]
IC50 [1]: 20 to 200 nM
IC50 [2]: 200 to 5000 nM
IC50 [6]: 100 to 1000 nM

CCc1cnc(-c2c[nH]c3ncc(F)cc23)nc1N[C@H]1CCCNC1 [Compound 231, 5-ethyl-2-(5-fluoro-1H-pyrrolo [2,3-b]pyridin-3-yl)-N-[(3S)-3-piperidyl] pyrimidin-4-amine]
IC50 [1]: > 5000 nM
IC50 [2]: > 5000 nM
IC50 [3]: > 5000 nM
IC50 [4]: > 5000 nM
IC50 ([5]; Homo sapiens, A673, 72 h): 200 to 5000 nM

Cc1cn(-c2cccc3c(-c4nc(N[C@H]5CCCNC5)ncc4C(F)(F)F)c[nH]c23)cn1 [Compound 172]
IC50 [1]: < 20 nM
IC50 [2]: 200 to 5000 nM
IC50 [3]: 200 to 5000 nM
IC50 [4]: 200 to 5000 nM
IC50 ([5]; Homo sapiens, A673, 72 h): < 20 nM

CCc1cnc(N[C@H]2CCCNC2)nc1-c1n[nH]c2cc(C#N)ccc12 [Compound 275, (S)-3-(5-ethyl-2-(piperidin-3-ylamino)pyrimidin-4-yl)-1H-indazole-6-carbonitrile]
IC50 [1]: < 20 nM
IC50 [2]: 200 to 5000 nM
IC50 [3]: 200 to 5000 nM
IC50 [4]: 200 to 5000 nM
IC50 ([5]; Homo sapiens, A673, 72 h): 20 to 200 nM

Fc1cc2[nH]cc(-c3nc(N[C@H]4CCCNC4)ncc3Cl)c2cc1F [Compound 111]
IC50 [1]: < 20 nM
IC50 [2]: 20 to 200 nM
IC50 [3]: 20 to 200 nM
IC50 [4]: 200 to 5000 nM
IC50 ([5]; Homo sapiens, A673, 72 h): 20 to 200 nM

FC(F)(F)c1cnc(N[C@H]2CCCNC2)nc1-c1c[nH]c2cc(-c3ccnnc3)ccc12 [Compound 230, N-[(3S)-3-piperidyl]-4-(6-pyridazin-4-yl-1H-indol-3-yl)-5-(trifluoromethyl) pyrimidin-2-amine]
IC50 [1]: < 20 nM
IC50 [2]: 200 to 5000 nM
IC50 [3]: 200 to 5000 nM
IC50 [4]: 200 to 5000 nM
IC50 ([5]; Homo sapiens, A673, 72 h): 20 to 200 nM

COc1cnc(N[C@H]2CCCNC2)nc1-c1c[nH]c2ccccc12 [Compound 189]
IC50 [1]: 200 to 5000 nM
IC50 [2]: > 5000 nM
IC50 [3]: > 5000 nM
IC50 [4]: > 5000 nM
IC50 [5]: 200 to 5000 nM

c1ccc2c(-c3nc(N[C@H]4CCCNC4)ncc3C3CC3)c[nH]c2c1 [Compound 135]
IC50 [1]: 20 to 200 nM
IC50 [2]: > 5000 nM
IC50 [3]: > 5000 nM
IC50 [4]: > 5000 nM
IC50 ([5]; Homo sapiens, A673, 72 h): 200 to 5000 nM

N#Cc1cc2[nH]cc(-c3nc(N[C@H]4CCCNC4)ncc3C(F)(F)F)c2cc1F [Compound 197, 5-fluoro-3-[2-[[(3S)-3-piperidyl]amino]-5-(trifluoromethyl)pyrimidin-4-yl]-1H-indole-6-carbonitrile]
IC50 [1]: < 20 nM
IC50 [2]: 200 to 5000 nM
IC50 [3]: 200 to 5000 nM
IC50 [4]: 200 to 5000 nM
IC50 ([5]; Homo sapiens, A673, 72 h): < 20 nM

Nc1nc2c(-c3ccc4c(-c5nc(N[C@H]6CCCNC6)ncc5C(F)(F)F)c[nH]c4c3)cccc2s1 [Compound 312]
IC50 [1]: 20 to 200 nM
IC50 [2]: 200 to 5000 nM
IC50 ([6]; Homo sapiens, HCC70, 72 h): 100 to 1000 nM

FC1(F)CNC[C@@H](Nc2ncc(C(F)(F)F)c(-c3c[nH]c4ccccc34)n2)C1 [Compound 236, N-[(3S)-5,5-difluoro-3-piperidyl]-4-(1H-indol-3-yl)-5-(trifluoromethyl) pyrimidin-2-amine]
IC50 [1]: < 20 nM
IC50 [2]: 200 to 5000 nM
IC50 [3]: 200 to 5000 nM
IC50 [4]: 200 to 5000 nM
IC50 ([5]; Homo sapiens, A673, 72 h): 20 to 200 nM

Nc1ncc2cccc(-c3ccc4c(-c5nc(N[C@H]6CCCNC6)ncc5C(F)(F)F)c[nH]c4c3)c2n1 [Compound 322]
IC50 [1]: < 20 nM
IC50 [2]: 200 to 5000 nM
IC50 [6]: 100 to 1000 nM

CNC(=O)C1CNCC(Nc2ncc(C(F)(F)F)c(-c3c[nH]c4ccccc34)n2)C1 (single isomer, unassigned) [Compound 252]
IC50 [1]: 20 to 200 nM
IC50 [2]: > 5000 nM
IC50 [3]: > 5000 nM
IC50 [4]: 200 to 5000 nM
IC50 [5]: 200 to 5000 nM

FC(F)(F)c1cnc(N[C@H]2CCCNC2)nc1-c1c[nH]c2cc(-c3ncc[nH]3)ccc12 [Compound 202, 4-[6-(1H-imidazol-2-yl)-1H-indol-3-yl]-N-[(3S)-3-piperidyl]-5-(trifluoromethyl) pyrimidin-2-amine]
IC50 [1]: < 20 nM
IC50 [2]: > 5000 nM
IC50 [3]: 200 to 5000 nM
IC50 [4]: 200 to 5000 nM
IC50 ([5]; Homo sapiens, A673, 72 h): 20 to 200 nM

Cc1n[nH]cc1-c1ccc2c(-c3nc(N[C@H]4CCCNC4)ncc3C(F)(F)F)c[nH]c2c1 [Compound 229, 4-[6-(3-methyl-1H-pyrazol-4-yl)-1H-indol-3-yl]-N-[(3S)-3-piperidyl]-5-(trifluoromethyl) pyrimidin-2-amine]
IC50 [1]: < 20 nM
IC50 [2]: 200 to 5000 nM
IC50 [3]: 200 to 5000 nM
IC50 [4]: 200 to 5000 nM
IC50 ([5]; Homo sapiens, A673, 72 h): < 20 nM

From patent US20240360165A1, “INHIBITORS OF CYCLIN DEPENDENT KINASE 7 (CDK7)” (Syros Pharmaceuticals, Inc., priority 2016, published 2024)
